Results reported in patent US11534457B2, “Use of dextran sulfate” (priority 2017, dated 2022).

Legend:
[1] = biological target: protein-protein interaction between oligomeric amyloid-β and PrP^c (Homo sapiens, UniProt P04156); format: binding
[2] = system: trabecular meshwork (TM) scarring in glaucomatous eyes; test: TGF-β induced glaucoma in rats, trabecular meshwork scarring (laminin, fibronectin immunohistochemistry); format: in vivo, Sprague Dawley rats
Method: Glaucoma was induced in adult male Sprague Dawley rats by repeat twice weekly intracameral (IC) injections of transforming growth factor-β (TGF-β) to increase intraocular pressure (IOP). Sustained increases in IOP (after two weeks) leads to death of retinal ganglion cells (30-40%). LMW-DS was administered at 15 mg/kg by daily subcutaneous injection […] to assess RGC protection compared to controls.
Group 1 n=12 rats; 24 eyes […] TGF-β (twice weekly for 28 days) between day 0 and day 28+ daily subcutaneous administration of dextran sulfate from day 14 to day 28.
Group 2 n=8 rats; 16 eyes IOP+IC TGF-β (twice weekly for 28 days) between day 0 and day 28+ daily subcutaneous administration of vehicle (saline) from day 14 to day 28.
Measured End-Points • IOP twice weekly throughout study from day 0 to day 28; • Immunohistochemistry for counting retinal ganglion cell (RGC) that are immunoreactive for brain-specific homeobox/POU domain protein 3A (Brn3a) at day 28 (RGC survival); • Immunohistochemistry for laminin and fibronectin to evaluate scarring in the trabecular meshwork at day 28 in Groups 1 and 2; • Anterior segment and optical coherence tomography (OCT) imaging at day 28 to examine the angle and the thickness of the retinal nerve fiber layer comprising RGC axons; and • Body weight at day 28. […]

In the case of “low molecular weight dextran sulfate [LMW-DS]”, the “Competable binding (%)” value [1] is reported as 85 ± 4%, the Hill coefficient [1] is reported as 1.00 ± 0.21 and the “IC50” value [1] is reported as 0.42 ± 0.16 µg/mL. The “competition for the protein-protein interaction (in words)” value [1] was “in a concentration dependent manner as did LMW-DS”, the “immunoreactive laminin in the angle (TM scarring) vs saline” value ([2]; 15 mg/kg daily s.c. day 14 to day 28, P<0.001) was “significantly reduced” and the “immunoreactive fibronectin in the angle (TM scarring) vs saline” value ([2]; 15 mg/kg daily s.c. day 14 to day 28, P<0.01) was “significantly reduced”.
